Values of other authors in US20090088424A1, “METHODS AND COMPOSITIONS FOR CONTROLLING THE BIOAVAILABILITY OF POORLY SOLUBLE DRUGS” (priority 2007, published 2009).
In brackets after ≈: the same amount, converted by molar mass.

Conditions: pH 8.7, 25° C.

aqueous solubility: 9.2 µg/mL (≈ 29.1 µM)
SMILES: O=C1Nc2ccc(Cl)cc2[C@@](C#CC2CC2)(C(F)(F)F)O1 [Efavirenz, (S)-6-chloro-4-(cyclopropylethynyl)-1,4-dihydro-4-(trifluoromethyl)-2H-3,1-benzoxazin-2-one]
